Data from patent EP4563146A1 (IRBM S.P.A., priority 2023, dated 2025).

Each molecule was assayed on ZIKV replicon (assay: ZIKV replication inhibition assay (NanoLuc replicon in Vero cells)). Details: Zika virus, Vero, 72 h, read-out: ZIKA Cell_Nanoluc.
`NCC12CC(C[n+]3cc([N-]C(=O)Nc4cc(NC(=O)Cc5ccccc5)cc(C(F)(F)F)c4)on3)(C1)C2` [Example 103] gave an EC50 greater than 20 µM.
With `O=C(Cc1ccccc1)Nc1cc(NC(=O)[N-]c2c[n+](CC3CCNCC3)no2)cc(C(F)(F)F)c1` [Example 120] the EC50 was greater than 20 µM.
Molecule `CN1CCCCC1C[n+]1cc([N-]C(=O)Nc2cc(NC(=O)Cc3ccccc3)cc(C3CC3)c2)on1` (stereo not shown) [Example 127] has an EC50 of 1 to 20 µM.
Molecule `N[C@H]1CC[C@@H](C[n+]2cc([N-]C(=O)Nc3cc(N4CCC(c5ccccc5)C4=O)cc(C(F)(F)F)c3)on2)CC1` (stereo partly drawn) [Example 131, (3-(((1S,4S)-4-Aminocyclohexyl)methyl)-1,2,3-oxadiazol-3-ium-5-yl)((3-(2-oxo-3-phenylpyrrolidin-1-yl)-5-(trifluoromethyl)-phenyl)carbamoyl)amide] has an EC50 of 1 to 20 µM.

Same assay, conditions: Zika virus, Vero, 72 h, read-out: ZIKA Cell_Nanoluc, Vero cells with stable ZIKV replicon, 72 h, Nano-Glo readout
`O=C(Cc1ccccc1)Nc1cc(NC(=O)[N-]c2c[n+](C3CCNCC3)no2)cc(C(F)(F)F)c1` [Example 99, ((3-(2-Phenylacetamido)-5-(trifluoromethyl)-phenyl)carbamoyl)(3-(piperidin-4-yl)-1,2,3-oxadiazol-3-ium-5-yl)amide] gave an EC50 of 1 to 20 µM.
In the case of `CN1CCC([n+]2cc([N-]C(=O)Nc3cc(NC(=O)Cc4ccccc4)cc(C(F)(F)F)c3)on2)CC1` [Example 100, (3-(1-Methylpiperidin-4-yl)-1,2,3-oxadiazol-3-ium-5-yl)((3-(2-phenylacetamido)-5-(trifluoromethyl)phenyl)carbamoyl)amide], the EC50 is reported as 1 to 20 µM.
Work on `O=C(Cc1ccccc1)Nc1cc(NC(=O)[N-]c2c[n+](Cc3ccc(C(=O)O)cc3)no2)cc(C(F)(F)F)c1` [Example 101, (3-(4-Carboxybenzyl)-1,2,3-oxadiazol-3-ium-5-yl)((3-(2-phenylacetamido)-5-(trifluoromethyl)phenyl)carbamoyl)amide] yielded an EC50 greater than 20 µM.
Work on `O=C(Cc1ccccc1)Nc1cc(NC(=O)[N-]c2c[n+](Cc3ccc(CO)cc3)no2)cc(C(F)(F)F)c1` [Example 102, (3-(4-(Hydroxymethyl)benzyl)-1,2,3-oxadiazol-3-ium-5-yl)((3-(2-phenylacetamido)-5-(trifluoromethyl)phenyl)carbamoyl)amide] yielded an EC50 of 1 to 20 µM.
`NC(=O)c1ccc(C[n+]2cc([N-]C(=O)Nc3cc(NC(=O)Cc4ccccc4)cc(C(F)(F)F)c3)on2)cc1` [Example 104, (3-(4-Carbamoylbenzyl)-1,2,3-oxadiazol-3-ium-5-yl)((3-(2-phenylacetamido)-5-(trifluoromethyl)phenyl)carbamoyl)amide] showed an EC50 of 1 to 20 µM.
With `CN1CCCCC1C[n+]1cc([N-]C(=O)Nc2cc(NC(=O)Cc3ccccc3)cc(C(F)(F)F)c2)on1` (stereo not shown) [Example 105, (3-((1-Methylpiperidin-2-yl)methyl)-1,2,3-oxadiazol-3-ium-5-yl)((3-(2-phenylacetamido)-5-(trifluoromethyl)phenyl)carbamoyl)amide] the EC50 was 0.1 to 1 µM.
Work on `CN1CCC(C[n+]2cc([N-]C(=O)Nc3cc(NC(=O)Cc4ccccc4)cc(C(F)(F)F)c3)on2)CC1` [Example 106, (3-((1-Methylpiperidin-4-yl)methyl)-1,2,3-oxadiazol-3-ium-5-yl)((3-(2-phenylacetamido)-5-(trifluoromethyl)phenyl)carbamoyl)amide] yielded an EC50 of 1 to 20 µM.
`O=C(Cc1ccccc1)Nc1cc(NC(=O)[N-]c2c[n+](Cc3cccc(CN4C(=O)c5ccccc5C4=O)c3)no2)cc(C(F)(F)F)c1` [Example 107, (3-(3-((1,3-Dioxoisoindolin-2-yl)methyl)benzyl)-1,2,3-oxadiazol-3-ium-5-yl)((3-(2-phenylacetamido)-5-(trifluoromethyl)phenyl)carbamoyl)amide] gave an EC50 of 1 to 20 µM.
In the case of `NCc1cccc(C[n+]2cc([N-]C(=O)Nc3cc(NC(=O)Cc4ccccc4)cc(C(F)(F)F)c3)on2)c1` [Example 108, (3-(3-(Aminomethyl)benzyl)-1,2,3-oxadiazol-3-ium-5-yl)((3-(2-phenylacetamido)-5-(trifluoromethyl)phenyl)carbamoyl)amide], the EC50 is reported as 1 to 20 µM.
`COC(=O)Cc1ccc(C[n+]2cc([N-]C(=O)Nc3cc(NC(=O)Cc4ccccc4)cc(C(F)(F)F)c3)on2)cc1` [Example 109, (3-(4-(2-Methoxy-2-oxoethyl)benzyl)-1,2,3-oxadiazol-3-ium-5-yl)((3-(2-phenylacetamido)-5-(trifluoromethyl)phenyl)carbamoyl)amide] was tested, and the EC50 was 0.1 to 1 µM.
With `O=C(Cc1ccccc1)Nc1cc(NC(=O)[N-]c2c[n+](CC3CCCNC3)no2)cc(C(F)(F)F)c1` (stereo not shown) [Example 110, ((3-(2-Phenylacetamido)-5-(trifluoromethyl)phenyl)carbamoyl)(3-(piperidin-3-ylmethyl)-1,2,3-oxadiazol-3-ium-5-yl)amide] the EC50 was greater than 20 µM.
`O=C(Cc1ccccc1)Nc1cc(NC(=O)[N-]c2c[n+](Cc3ccc(CCO)cc3)no2)cc(C(F)(F)F)c1` [Example 111, (3-(4-(2-Hydroxyethyl)benzyl)-1,2,3-oxadiazol-3-ium-5-yl)((3-(2-phenylacetamido)-5-(trifluoromethyl)phenyl)carbamoyl)amide] gave an EC50 of 0.1 to 1 µM.
In the case of `NC1C2COCC1CC([n+]1cc([N-]C(=O)Nc3cc(NC(=O)Cc4ccccc4)cc(C(F)(F)F)c3)on1)C2` (stereo not shown) [Example 112, (3-(9-Amino-3-oxabicyclo[3.3.1]nonan-7-yl)-1,2,3-oxadiazol-3-ium-5-yl)((3-(2-phenylacetamido)-5-(trifluoromethyl)phenyl)carbamoyl)amide], the EC50 is reported as greater than 20 µM.
`COC(=O)c1ccc(C[n+]2cc([N-]C(=O)Nc3cc(NC(=O)Cc4ccccc4)cc(C(F)(F)F)c3)on2)nc1` [Example 113, (3-((5-(Methoxycarbonyl)pyridin-2-yl)methyl)-1,2,3-oxadiazol-3-ium-5-yl)((3-(2-phenylacetamido)-5-(trifluoromethyl)phenyl)carbamoyl)amide] was tested, and the EC50 was 1 to 20 µM.
Molecule `NCc1ccccc1C[n+]1cc([N-]C(=O)Nc2cc(NC(=O)Cc3ccccc3)cc(C(F)(F)F)c2)on1` [Example 114, (3-(2-(Aminomethyl)benzyl)-1,2,3-oxadiazol-3-ium-5-yl)((3-(2-phenylacetamido)-5-(trifluoromethyl)phenyl)carbamoyl)amide] has an EC50 of 1 to 20 µM.
Work on `O=C(Cc1ccccc1)Nc1cc(NC(=O)[N-]c2c[n+](CC3CNCCCO3)no2)cc(C(F)(F)F)c1` (stereo not shown) [Example 115, (3-((1,4-oxazepan-2-yl)methyl)-1,2,3-oxadiazol-3-ium-5-yl)((3-(2-phenylacetamido)-5-(trifluoromethyl)phenyl)carbamoyl)amide] yielded an EC50 of 1 to 20 µM.
`O=C(Cc1ccccc1)Nc1cc(NC(=O)[N-]c2c[n+](Cc3ccc(CO)cn3)no2)cc(C(F)(F)F)c1` [Example 116, (3-((5-(Hydroxymethyl)pyridin-2-yl)methyl)-1,2,3-oxadiazol-3-ium-5-yl)((3-(2-phenylacetamido)-5-(trifluoromethyl)phenyl)carbamoyl)amide] gave an EC50 of 1 to 20 µM.
`CN1CCCC(C[n+]2cc([N-]C(=O)Nc3cc(NC(=O)Cc4ccccc4)cc(C(F)(F)F)c3)on2)C1` (stereo not shown) [Example 117, (3-((1-Methylpiperidin-3-yl)methyl)-1,2,3-oxadiazol-3-ium-5-yl)((3-(2-phenylacetamido)-5-(trifluoromethyl)phenyl)carbamoyl)amide] gave an EC50 of 1 to 20 µM.
In the case of `NC1CC(C[n+]2cc([N-]C(=O)Nc3cc(NC(=O)Cc4ccccc4)cc(C(F)(F)F)c3)on2)C1` (stereo not shown) [Example 118, (3-((3-Aminocyclobutyl)methyl)-1,2,3-oxadiazol-3-ium-5-yl)((3-(2-phenylacetamido)-5-(trifluoromethyl)phenyl)carbamoyl)amide], the EC50 is reported as 1 to 20 µM.
Molecule `O=C([N-]c1c[n+](Cc2ccccn2)no1)Nc1cc(N2CC(c3ccccc3)CC2=O)cc(C(F)(F)F)c1` (stereo not shown) [Example 122, ((3-(2-Oxo-4-phenylpyrrolidin-1-yl)-5-(trifluoromethyl)phenyl)carbamoyl)(3-(pyridin-2-ylmethyl)-1,2,3-oxadiazol-3-ium-5-yl)amide] has an EC50 of 1 to 20 µM.
With `O=C(Cc1ccc(=O)[nH]c1)Nc1cc(NC(=O)[N-]c2c[n+](Cc3ccccn3)no2)cc(C(F)(F)F)c1` [Example 123, ((3-(2-(6-Oxo-1,6-dihydropyridin-3-yl)acetamido)-5-(trifluoromethyl)phenyl)-carbamoyl)(3-(pyridin-2-ylmethyl)-1,2,3-oxadiazol-3-ium-5-yl)amide] the EC50 was greater than 20 µM.
`O=C(Cc1ccc2nc[nH]c2c1)Nc1cc(NC(=O)[N-]c2c[n+](Cc3ccccn3)no2)cc(C(F)(F)F)c1` [Example 124, ((3-(2-(1H-Benzo[d]imidazol-6-yl)acetamido)-5-(trifluoromethyl)phenyl)carbamoyl)(3-(pyridin-2-ylmethyl)-1,2,3-oxadiazol-3-ium-5-yl)amide] showed an EC50 greater than 20 µM.
`O=C(Cc1ccccc1)Nc1cc(NC(=O)[N-]c2c[n+](CC3CCCCN3)no2)cc(C(F)(F)F)c1` (stereo not shown) [Example 125, ((3-(2-Phenylacetamido)-5-(trifluoromethyl)-phenyl)carbamoyl)(3-(piperidin-2-ylmethyl)-1,2,3-oxadiazol-3-ium-5-yl)amide] showed an EC50 of 1 to 20 µM.
`O=C(Cc1cccc2cn[nH]c12)Nc1cc(NC(=O)[N-]c2c[n+](Cc3ccccn3)no2)cc(C(F)(F)F)c1` [Example 126, ((3-(2-(1H-Indazol-7-yl)acetamido)-5-(trifluoromethyl)phenyl)carbamoyl)(3-(pyridin-2-ylmethyl)-1,2,3-oxadiazol-3-ium-5-yl)amide] showed an EC50 greater than 20 µM.
In the case of `COC(=O)c1ccc(C[n+]2cc([N-]C(=O)Nc3cc(NC(=O)Cc4ccccc4)cc(C4CC4)c3)on2)nc1` [Example 128, ((3-Cyclopropyl-5-(2-phenylacetamido)phenyl)-carbamoyl)(3-((5-(methoxycarbonyl)pyridin-2-yl)methyl)-1,2,3-oxadiazol-3-ium-5-yl)amide], the EC50 is reported as 1 to 20 µM.
`O=C(Cc1ccccc1)Nc1cc(NC(=O)[N-]c2c[n+](Cc3ccc(CO)cn3)no2)cc(C2CC2)c1` [Example 129, ((3-Cyclopropyl-5-(2-phenylacetamido)phenyl)-carbamoyl)(3-((5-(hydroxymethyl)pyridin-2-yl)methyl)-1,2,3-oxadiazol-3-ium-5-yl)amide] gave an EC50 of 1 to 20 µM.
Work on `C[C@@H]1C[C@H]1c1cc(NC(=O)Cc2ccccc2)cc(NC(=O)[N-]c2c[n+](Cc3ccccn3)no2)c1` [Example 130, ((3-((1R,2R)-2-Methylcyclopropyl)-5-(2-phenylacetamido)phenyl)-carbamoyl)(3-(pyridin-2-ylmethyl)-1,2,3-oxadiazol-3-ium-5-yl)amide] yielded an EC50 of 1 to 20 µM.
